# Data from patent US20240116892A1, “HETEROCYCLIC AMIDE AND UREA COMPOUNDS AS JAK2 INHIBITORS” (Ajax Therapeutics, Inc., priority 2022, published 2024).
# Target: JAK2 (JH1 domain-catalytic, Y1007F, Y1008F) kinase (Homo sapiens (Human), UniProt O60674, Y1007F/Y1008F)
# Assay: JAK2 JH1 Domain Binding Assay
# Settings: qPCR readout
# Summary of the method: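 Competitive binding format: test compound, DNA-tagged JAK2 JH1 (Y1007F/Y1008F; HEK293-expressed NFkB fusion) and ligand-coated magnetic beads incubated 1 h at room temperature. Kinase retained on beads released with 0.5 μmol/L non-biotinylated ligand, then measured by qPCR.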
# Sequence of JAK2 (JH1 domain-catalytic, Y1007F, Y1008F) kinase (O60674 849-1124 Y1007F/Y1008F): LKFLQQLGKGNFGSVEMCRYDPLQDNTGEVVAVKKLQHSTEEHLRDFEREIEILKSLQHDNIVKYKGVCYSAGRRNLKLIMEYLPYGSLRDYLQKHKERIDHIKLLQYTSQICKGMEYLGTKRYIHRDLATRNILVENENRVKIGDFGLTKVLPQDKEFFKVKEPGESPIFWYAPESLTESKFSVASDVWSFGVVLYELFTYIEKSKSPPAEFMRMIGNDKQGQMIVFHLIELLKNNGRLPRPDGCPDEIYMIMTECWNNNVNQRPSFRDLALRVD
row,Kd,SMILES
1,10 to 50 nM,"CO[C@@H]1CN(c2cnc3[nH]ncc3c2)CC[C@H]1N(C)C(=O)Nc1cc(C(F)(F)F)cn(C)c1=O [Example I-109-a, 1-((3R,4R)-3-methoxy-1-(1H-pyrazolo[3,4-b]pyridin-5-yl)piperidin-4-yl)-1-methyl-3-(1-methyl-2-oxo-5-(trifluoromethyl)-1,2-dihydropyridin-3-yl)urea]"
2,50 to 1000 nM,"CC(=O)Nc1cnc(N2CCC(CC(=O)Nc3cc(C(F)(F)F)cn(C)c3=O)CC2)cn1 [Example I-3, 2-(1-(5-acetamidopyrazin-2-yl)piperidin-4-yl)-N-(1-methyl-2-oxo-5-(trifluoromethyl)-1,2-dihydropyridin-3-yl)acetamide]"
3,< 10 nM,"CN(C(=O)Nc1cc(C(F)(F)F)cn(C)c1=O)C12CCC(c3cnc4[nH]ncc4c3)(CC1)OC2 [Example I-168, 1-(1-(1H-pyrazolo[3,4-b]pyridin-5-yl)-2-oxabicyclo[2.2.2]octan-4-yl)-1-methyl-3-(1-methyl-2-oxo-5-(trifluoromethyl)-1,2-dihydropyridin-3-yl)urea]"
4,< 10 nM,"CN(C(=O)Nc1cc(C(F)(F)F)cn(C)c1=O)[C@@H]1CCN(c2cnc3[nH]c(=O)[nH]c3c2)C[C@@H]1F [Example I-100-b, 1-((3S,4R)-3-fluoro-1-(2-oxo-2,3-dihydro-1H-imidazo[4,5-b]pyridin-6-yl)piperidin-4-yl)-1-methyl-3-(1-methyl-2-oxo-5-(trifluoromethyl)-1,2-dihydropyridin-3-yl)urea]"
5,< 10 nM,"Cc1cc(NC(=O)N(C)C2CCN(c3cnc4[nH]ccc4n3)CC2)cc(C(F)(F)F)c1 [Example I-11, 1-(1-(5H-pyrrolo[2,3-b]pyrazin-2-yl)piperidin-4-yl)-1-methyl-3-(3-methyl-5-(trifluoromethyl)phenyl)urea]"
6,10 to 50 nM,"COc1n[nH]c2ncc(N3CC[C@H](N(C)C(=O)Nc4cc(C(F)(F)F)cn(C)c4=O)[C@@H](OC)C3)cc12 [Example I-108-b, 1-((3S,4S)-3-methoxy-1-(3-methoxy-1H-pyrazolo[3,4-b]pyridin-5-yl)piperidin-4-yl)-1-methyl-3-(1-methyl-2-oxo-5-(trifluoromethyl)-1,2-dihydropyridin-3-yl)urea]"
7,< 10 nM,"COc1n[nH]c2ncc(N3CC[C@H](N(C)C(=O)Nc4cc(C(F)(F)F)cn(C)c4=O)[C@@H](F)C3)cc12 [Example I-84-a, 1-((3S,4S)-3-fluoro-1-(3-methoxy-1H-pyrazolo[3,4-b]pyridin-5-yl)piperidin-4-yl)-1-methyl-3-(1-methyl-2-oxo-5-(trifluoromethyl)-1,2-dihydropyridin-3-yl)urea]"
8,< 10 nM,"COCc1cc2nc(N3CC[C@H](N(C)C(=O)Nc4cc(C(F)(F)F)cn(C)c4=O)[C@H](C)C3)cnc2[nH]1 [Example I-159-a, 1-((3R,4S)-1-(6-(methoxymethyl)-5H-pyrrolo[2,3-b]pyrazin-2-yl)-3-methylpiperidin-4-yl)-1-methyl-3-(1-methyl-2-oxo-5-(trifluoromethyl)-1,2-dihydropyridin-3-yl)urea]"
9,< 10 nM,"CN(C(=O)Nc1cc(C(F)(F)F)cn(C)c1=O)C1CCN(c2cnc3[nH]n(C)c(=O)c3c2)CC1 [Example I-86, 1-methyl-3-(1-methyl-2-oxo-5-(trifluoromethyl)-1,2-dihydropyridin-3-yl)-1-(1-(2-methyl-3-oxo-2,3-dihydro-1H-pyrazolo[3,4-b]pyridin-5-yl)piperidin-4-yl)urea]"
10,1000 to 5000 nM,"CN(C(=O)Nc1cc(N2CCC(O)CC2)cc(C(F)(F)F)c1)C1CCN(c2cnccn2)CC1 [Example I-9, 3-(3-(4-hydroxypiperidin-1-yl)-5-(trifluoromethyl)phenyl)-1-methyl-1-(1-(pyrazin-2-yl)piperidin-4-yl)urea]"
11,50 to 1000 nM,"C[C@H]1C[C@@H](N(C)C(=O)Nc2cc(C(C)(C)C)n([C@H]3C[C@H](O)C3)n2)CCN1c1cnc2[nH]ncc2c1 [Example I-135-b, 3-(5-(tert-butyl)-1-((1r,3S)-3-hydroxycyclobutyl)-1H-pyrazol-3-yl)-1-methyl-1-((2S,4S)-2-methyl-1-(1H-pyrazolo[3,4-b]pyridin-5-yl)piperidin-4-yl)urea]"
12,< 10 nM,"COc1n[nH]c2ncc(N3CC[C@H](N(C)C(=O)Nc4cc(C(F)(F)F)cn(C)c4=O)[C@H](C)C3)cc12 [Example I-131-a, 1-((3R,4S)-1-(3-methoxy-1H-pyrazolo[3,4-b]pyridin-5-yl)-3-methylpiperidin-4-yl)-1-methyl-3-(1-methyl-2-oxo-5-(trifluoromethyl)-1,2-dihydropyridin-3-yl)urea]"
13,10 to 50 nM,"C[C@@H]1C[C@H](N(C)C(=O)Nc2cc(C(C)(C)C)n([C@H]3C[C@H](O)C3)n2)CCN1c1cnc2[nH]ncc2c1 [Example I-135-a, 3-(5-(tert-butyl)-1-((1r,3R)-3-hydroxycyclobutyl)-1H-pyrazol-3-yl)-1-methyl-1-((2R,4R)-2-methyl-1-(1H-pyrazolo[3,4-b]pyridin-5-yl)piperidin-4-yl)urea]"
14,< 10 nM,"C[C@@H]1C[C@H](N(C)C(=O)Nc2cc(C(F)(F)F)cn(C)c2=O)CCN1c1cnc2[nH]ncc2c1 [Example I-105-b, 1-methyl-1-((2R,4R)-2-methyl-1-(1H-pyrazolo[3,4-b]pyridin-5-yl)piperidin-4-yl)-3-(1-methyl-2-oxo-5-(trifluoromethyl)-1,2-dihydropyridin-3-yl)urea]"
15,< 10 nM,"CN(C(=O)Nc1cc(C(F)(F)F)cn(C)c1=O)C1CCN(c2cnc3[nH]cc(C4CC4)c3n2)CC1 [Example I-40, 1-(1-(7-cyclopropyl-5H-pyrrolo[2,3-b]pyrazin-2-yl)piperidin-4-yl)-1-methyl-3-(1-methyl-2-oxo-5-(trifluoromethyl)-1,2-dihydropyridin-3-yl)urea]"
16,< 10 nM,"CN(C(=O)Nc1cncc(C(F)(F)F)c1)[C@@H]1CCN(c2cnc3[nH]ncc3c2)CC1(F)F.CN(C(=O)Nc1cncc(C(F)(F)F)c1)[C@H]1CCN(c2cnc3[nH]ncc3c2)CC1(F)F (mixture of isomers) [Example I-147-a, (R)-1-(3,3-difluoro-1-(1H-pyrazolo[3,4-b]pyridin-5-yl)piperidin-4-yl)-1-methyl-3-(5-(trifluoromethyl)pyridin-3-yl)urea and (S)-1-(3,3-difluoro-1-(1H-pyrazolo[3,4-b]pyridin-5-yl)piperidin-4-yl)-1-methyl-3-(5-(trifluoromethyl)pyridin-3-yl)urea]"
17,10 to 50 nM,"CN(C(=O)Nc1cc(C(F)(F)F)cn(C)c1=O)[C@H]1CCN(c2cnc3[nH]n(C)c(=O)c3c2)CC1F (stereo in doubt) [Example I-90-a, 1-((3R,4S)-3-fluoro-1-(2-methyl-3-oxo-2,3-dihydro-1H-pyrazolo[3,4-b]pyridin-5-yl)piperidin-4-yl)-1-methyl-3-(1-methyl-2-oxo-5-(trifluoromethyl)-1,2-dihydropyridin-3-yl)urea]"
18,< 10 nM,"CNc1n[nH]c2ncc(N3CC[C@@H](N(C)C(=O)Nc4cc(C(F)(F)F)cn(C)c4=O)[C@@H](F)C3)cc12 [Example I-97-a, 1-((3S,4R)-3-fluoro-1-(3-(methylamino)-1H-pyrazolo[3,4-b]pyridin-5-yl)piperidin-4-yl)-1-methyl-3-(1-methyl-2-oxo-5-(trifluoromethyl)-1,2-dihydropyridin-3-yl)urea]"
